This passage reports IC50 results from patent US20020019395A1, “Indalone and benzimidazolone inhibitors of factor Xa” (priority 2000, published 2002).

Common to all, as to assay type: biochemical
For one assay, the target named is factor Xa (Homo sapiens, UniProt P00742). The assay can be described thus: factor Xa amidolytic assay (XA). The following applies: substrate S-2765, pH 7.5, room temperature. The protocol: (§1) The compounds of the present invention are dissolved in buffer to give solutions containing concentrations such that assay concentrations range from about 0 to about 100 μM. In the assays for thrombin, prothrombinase and factor Xa, a synthetic chromogenic substrate is added to a solution containing test compound and the enzyme of interest and the residual catalytic activity of that enzyme is determined spectrophotometrically. The IC50 of a compound is determined from the substrate turnover. The IC50 is the concentration of test compound giving about 50% inhibition of the substrate turnover.
factor Xa, sequence (P00742 235-488 limits assumed): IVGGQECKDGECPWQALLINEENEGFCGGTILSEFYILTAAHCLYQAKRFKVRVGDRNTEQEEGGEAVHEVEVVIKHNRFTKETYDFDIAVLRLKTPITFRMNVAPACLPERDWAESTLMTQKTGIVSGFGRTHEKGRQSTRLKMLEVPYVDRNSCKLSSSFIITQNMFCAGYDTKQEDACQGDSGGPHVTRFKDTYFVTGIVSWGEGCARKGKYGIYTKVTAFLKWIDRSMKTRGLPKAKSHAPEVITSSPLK
factor Xa, sequence (P00742 41-179 partner limits assumed): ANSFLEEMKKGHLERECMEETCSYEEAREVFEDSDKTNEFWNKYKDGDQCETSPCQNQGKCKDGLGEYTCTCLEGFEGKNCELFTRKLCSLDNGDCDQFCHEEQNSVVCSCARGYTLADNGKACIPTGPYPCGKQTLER
(§2) The factor Xa and thrombin assays were performed at room temperature, in 0.02 M Tris.HCl buffer, pH 7.5, containing 0.15 M NaCl. The rates of hydrolysis of the para-nitroanilide substrate S-2765 (Chromogenix) for factor Xa, and the substrate Chromozym TH (Boehringer Mannheim) for thrombin following preincubation of the enzyme with inhibitor for 5 minutes at room temperature, and were determined using the Softmax 96-well plate reader (Molecular Devices), monitored at 405 nm to measure the time dependent appearance of p-nitroaniline.

Another assay has as its target thrombin (Homo sapiens, UniProt P00734). The assay can be described thus: thrombin amidolytic assay (IIA). The note with it: substrate Chromozym TH, pH 7.5, room temperature. The protocol: as §1, §2
The target in the next assay is prothrombinase complex (Homo sapiens, UniProt P00742). The assay can be described thus: prothrombinase inhibition assay (IIASE), plasma free system. The following applies: factor Xa 0.5 nM, factor Va 2 nM, phospholipid, Chromozym TH. On the procedure:
as §1
The prothrombinase inhibition assay was performed in a plasma free system with modifications to the method described by Sinha, U. et al., Thromb. Res., 75, 427-436 (1994). Specifically, the activity of the prothrombinase complex was determined by measuring the time course of thrombin generation using the p-nitroanilide substrate Chromozym TH. The assay consists of preincubation (5 minutes) of selected compounds to be tested as inhibitors with the complex formed from factor Xa (0.5 nM), factor Va (2 nM), phosphatidyl serine:phosphatidyl choline (25:75, 20 μM) in 20 mM Tris.HCl buffer, pH 7.5, containing 0.15 M NaCl, 5 mM CaCl2 and 0.1% bovine serum albumin. Aliquots from the complex-inhibitor mixture were added to prothrombin (1 nM) and Chromozym TH (0.1 mM). The rate of substrate cleavage was monitored at 405 nm for two minutes. Eight different concentrations of inhibitor were assayed in duplicate. A standard curve of thrombin generation by an equivalent amount of untreated complex was used for determination of percent inhibition.

The next assay deals with T1, TRYPSIN (Bos taurus, UniProt P00760).
T1 construct: gene PRSS1
T1 sequence (P00760 24-246): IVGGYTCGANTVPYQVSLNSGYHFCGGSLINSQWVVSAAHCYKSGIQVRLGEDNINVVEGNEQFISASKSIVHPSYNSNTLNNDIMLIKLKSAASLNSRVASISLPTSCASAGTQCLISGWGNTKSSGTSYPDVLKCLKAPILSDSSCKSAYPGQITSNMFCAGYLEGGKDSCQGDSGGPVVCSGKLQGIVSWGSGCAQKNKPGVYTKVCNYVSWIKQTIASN
The assay can be described thus: trypsin protease inhibition assay.

Another assay has as its target TPA (Homo sapiens, UniProt P00750). The assay can be described thus: TPA protease inhibition assay.
For a further assay, the target named is APC (Homo sapiens, UniProt P04070). The assay can be described thus: APC protease inhibition assay.
APC, sequence (P04070 212-450 limits assumed): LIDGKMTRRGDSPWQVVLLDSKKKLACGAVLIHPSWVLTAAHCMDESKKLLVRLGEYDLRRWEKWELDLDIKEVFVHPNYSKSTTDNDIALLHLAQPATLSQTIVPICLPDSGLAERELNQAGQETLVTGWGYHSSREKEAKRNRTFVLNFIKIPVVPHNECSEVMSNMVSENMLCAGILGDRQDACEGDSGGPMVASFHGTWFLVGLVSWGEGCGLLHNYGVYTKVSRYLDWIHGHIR
APC, sequence (P04070 43-197 partner limits assumed): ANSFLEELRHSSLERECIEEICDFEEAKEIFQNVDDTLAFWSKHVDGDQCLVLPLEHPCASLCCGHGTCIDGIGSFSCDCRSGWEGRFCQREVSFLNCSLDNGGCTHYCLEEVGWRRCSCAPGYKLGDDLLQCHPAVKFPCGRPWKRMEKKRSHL
A further assay addresses PLASMIN (Homo sapiens, UniProt P00747). The assay can be described thus: plasmin protease inhibition assay.
The next assay deals with KALLIKREIN
The assay can be described thus: kallikrein protease inhibition assay.

TPA, sequence (P00750 36-562, species assumed): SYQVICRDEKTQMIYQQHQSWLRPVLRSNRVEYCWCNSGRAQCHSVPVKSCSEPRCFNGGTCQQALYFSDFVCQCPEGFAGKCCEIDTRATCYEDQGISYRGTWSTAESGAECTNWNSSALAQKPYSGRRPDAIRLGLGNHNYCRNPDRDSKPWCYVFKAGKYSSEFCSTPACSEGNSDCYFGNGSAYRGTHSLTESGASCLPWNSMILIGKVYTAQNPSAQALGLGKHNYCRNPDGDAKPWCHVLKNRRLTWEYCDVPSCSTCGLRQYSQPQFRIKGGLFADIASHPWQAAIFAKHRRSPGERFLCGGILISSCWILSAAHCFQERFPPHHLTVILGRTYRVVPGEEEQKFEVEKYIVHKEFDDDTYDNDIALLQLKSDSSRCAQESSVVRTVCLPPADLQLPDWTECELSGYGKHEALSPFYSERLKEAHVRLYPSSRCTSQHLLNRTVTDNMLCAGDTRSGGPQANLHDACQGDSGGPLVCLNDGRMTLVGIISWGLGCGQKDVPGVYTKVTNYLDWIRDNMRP
PLASMIN, sequence (P00747 581-810 limits assumed, species assumed): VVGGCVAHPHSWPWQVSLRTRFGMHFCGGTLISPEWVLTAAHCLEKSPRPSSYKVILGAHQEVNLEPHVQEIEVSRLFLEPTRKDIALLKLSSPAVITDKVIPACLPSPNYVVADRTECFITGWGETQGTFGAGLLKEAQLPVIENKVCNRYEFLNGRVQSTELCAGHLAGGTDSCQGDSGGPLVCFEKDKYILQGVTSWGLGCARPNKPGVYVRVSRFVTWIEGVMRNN
PLASMIN, sequence (P00747 97-580 partner limits assumed, species assumed): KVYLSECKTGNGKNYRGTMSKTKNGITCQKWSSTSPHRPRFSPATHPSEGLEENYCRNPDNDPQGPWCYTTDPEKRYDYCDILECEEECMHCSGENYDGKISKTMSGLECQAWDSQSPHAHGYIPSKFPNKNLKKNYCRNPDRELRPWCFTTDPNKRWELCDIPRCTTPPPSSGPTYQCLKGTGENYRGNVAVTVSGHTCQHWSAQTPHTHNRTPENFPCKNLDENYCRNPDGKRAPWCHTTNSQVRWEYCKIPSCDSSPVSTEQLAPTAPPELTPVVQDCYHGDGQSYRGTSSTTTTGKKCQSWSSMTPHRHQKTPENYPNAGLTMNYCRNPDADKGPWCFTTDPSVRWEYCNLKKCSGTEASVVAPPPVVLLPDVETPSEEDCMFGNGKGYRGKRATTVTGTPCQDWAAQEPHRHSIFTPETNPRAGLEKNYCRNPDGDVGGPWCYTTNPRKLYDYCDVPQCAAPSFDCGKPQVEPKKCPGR
prothrombinase complex, sequence (P00742 235-488 limits assumed): as the sequence (P00742 235-488 limits assumed) above
prothrombinase complex, sequence (P00742 41-179 partner limits assumed): as the sequence (P00742 41-179 partner limits assumed) above
prothrombinase complex, sequence (P12259 29-737 partner limits assumed): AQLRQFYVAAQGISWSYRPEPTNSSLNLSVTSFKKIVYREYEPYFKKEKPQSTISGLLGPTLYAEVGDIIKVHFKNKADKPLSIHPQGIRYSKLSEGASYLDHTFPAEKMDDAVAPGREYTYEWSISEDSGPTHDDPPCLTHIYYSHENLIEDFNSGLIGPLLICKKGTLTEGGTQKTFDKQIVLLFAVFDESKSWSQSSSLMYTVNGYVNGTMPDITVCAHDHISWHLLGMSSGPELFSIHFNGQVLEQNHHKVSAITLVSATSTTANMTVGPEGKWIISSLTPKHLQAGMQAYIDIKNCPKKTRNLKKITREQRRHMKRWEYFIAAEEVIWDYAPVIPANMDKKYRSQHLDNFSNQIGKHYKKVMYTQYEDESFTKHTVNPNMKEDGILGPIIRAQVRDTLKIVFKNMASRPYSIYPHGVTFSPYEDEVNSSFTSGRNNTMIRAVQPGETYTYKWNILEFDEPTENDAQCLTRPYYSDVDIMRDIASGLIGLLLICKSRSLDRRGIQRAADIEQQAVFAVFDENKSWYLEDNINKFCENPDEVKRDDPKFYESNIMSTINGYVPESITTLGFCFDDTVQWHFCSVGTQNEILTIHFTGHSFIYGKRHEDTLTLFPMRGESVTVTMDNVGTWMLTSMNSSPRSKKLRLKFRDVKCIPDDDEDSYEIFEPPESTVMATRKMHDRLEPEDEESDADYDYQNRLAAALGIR
prothrombinase complex, sequence (P12259 1574-2224 partner limits assumed): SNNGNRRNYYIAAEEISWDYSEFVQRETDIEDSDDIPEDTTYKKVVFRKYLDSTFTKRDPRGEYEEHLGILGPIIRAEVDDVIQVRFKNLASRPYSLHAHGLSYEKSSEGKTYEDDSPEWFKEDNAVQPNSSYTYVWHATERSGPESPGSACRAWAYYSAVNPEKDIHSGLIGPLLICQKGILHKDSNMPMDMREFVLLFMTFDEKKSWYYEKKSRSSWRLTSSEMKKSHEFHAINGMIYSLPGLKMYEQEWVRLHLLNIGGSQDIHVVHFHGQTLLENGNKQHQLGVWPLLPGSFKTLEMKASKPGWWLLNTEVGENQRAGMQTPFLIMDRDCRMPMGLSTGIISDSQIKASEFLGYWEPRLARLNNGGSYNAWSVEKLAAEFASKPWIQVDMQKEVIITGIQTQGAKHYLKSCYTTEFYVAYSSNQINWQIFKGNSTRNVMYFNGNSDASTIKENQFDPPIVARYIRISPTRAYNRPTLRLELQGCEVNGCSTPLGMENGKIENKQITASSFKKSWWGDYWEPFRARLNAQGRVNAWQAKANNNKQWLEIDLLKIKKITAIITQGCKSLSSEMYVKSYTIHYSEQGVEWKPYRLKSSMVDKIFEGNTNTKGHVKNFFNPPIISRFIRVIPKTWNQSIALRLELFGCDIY

Regarding `CC(=N)N1CCC(Oc2ccc3[nH]c(=O)n(Cc4ccc5ccc(C(=N)N)cc5c4)c3c2)CC1` [Example 4], the IC50 (commonly the point on the concentration scale where inhibition reaches its midpoint) on factor Xa came out at 20.4 nM; at thrombin, 286000 nM; against prothrombinase complex, 22.2 nM; on TRYPSIN, 133 nM; at TPA, 101000 nM; against APC it was 15900 nM. The IC50 against PLASMIN was found to be 8940 nM; in the assay on KALLIKREIN it was 508 nM.
With `N=C(N)c1ccc(Cn2c(=O)[nH]c3ccc(OC4CCN(C(=N)N)CC4)cc32)cc1` [Example 1], the IC50 against factor Xa turned out to be 9220 nM; on thrombin, 333000 nM; on TRYPSIN, 21800 nM; on APC it was 99200 nM; with KALLIKREIN, 9540 nM.
With `Cn1c(=O)n(Cc2ccc3ccc(C(=N)N)cc3c2)c2cc(OC3CCN(C(=N)N)CC3)ccc21` [Example 7], the IC50 against factor Xa is 32 nM; against thrombin it was 24500 nM; against prothrombinase complex it was 401 nM; against TRYPSIN it was 32.2 nM; against TPA, 31800 nM; on APC, 6420 nM. For the same molecule, the IC50 on PLASMIN amounted to 2980 nM; in the assay with KALLIKREIN it was 615 nM.
Regarding `CCn1c(Cn2c(=O)[nH]c3ccc(OC4CCN(C(C)=N)CC4)cc32)cc2ccc(C(=N)N)cc21` [Example 17], the IC50 stood at 14000 nM against factor Xa, 267 nM against thrombin, 526 nM against prothrombinase complex and 409 nM against TRYPSIN.
As to `CC(C)n1c(=O)n(Cc2ccc3ccc(C(=N)N)cc3c2)c2cc(OC3CCN(C(=N)N)CC3)ccc21` [Example 9], the IC50 on factor Xa was determined as 49.8 nM; on thrombin, 14900 nM; against prothrombinase complex it was 827 nM; against TRYPSIN it was 392 nM; against TPA, 92800 nM; at APC it was 1850 nM. Also, the results for the IC50 on PLASMIN and in the assay on KALLIKREIN were 2230 nM and 392 nM, respectively.
As for `CCn1c(Cn2c(=O)[nH]c3ccc(OC4CCN(C(=N)N)CC4)cc32)cc2ccc(C(=N)N)cc21` [Example 18], the IC50 at factor Xa was 1770 nM; at thrombin it was 302 nM; at prothrombinase complex it was 470 nM; on TRYPSIN, 509 nM.
With `CC(=N)N1CCC(Oc2ccc3c(c2)n(Cc2ccc4ccc(C(=N)N)cc4c2)c(=O)n3C(C)C)CC1` [Example 8], the IC50 at factor Xa is 28.6 nM; on thrombin it was 30200 nM; against prothrombinase complex it was 425 nM; against TRYPSIN, 349 nM; against TPA, 77800 nM; against APC, 2480 nM. Further, the IC50 on PLASMIN was 3500 nM; in the assay with KALLIKREIN it was 349 nM.
As to `N=C(N)c1ccc2ccc(Cn3c(=O)n(CC(=O)O)c4ccc(OC5CCN(C(=N)N)CC5)cc43)cc2c1` [Example 15], the IC50 against factor Xa is 67.1 nM; at prothrombinase complex, 4220 nM; on TRYPSIN, 163 nM; against TPA, 169000 nM; on APC, 49800 nM; against PLASMIN, 17000 nM. In the assay with KALLIKREIN, this molecule showed an IC50 of 9220 nM.
Regarding `CC(C)COC(=O)Cn1c(=O)n(Cc2ccc3ccc(C(=N)N)cc3c2)c2cc(OC3CCN(C(=N)N)CC3)ccc21` [Example 13], the IC50 was 17.8 nM against factor Xa; 59900 nM against thrombin; 250 nM against prothrombinase complex; 44.1 nM on TRYPSIN; 42800 nM on TPA; 6510 nM on APC. Besides, the IC50 against PLASMIN amounted to 2710 nM; in the assay on KALLIKREIN it was 1250 nM.
In the case of `CC(=N)N1CCC(Oc2ccc3c(c2)n(Cc2ccc4ccc(C(=N)N)cc4c2)c(=O)n3C)CC1` [Example 6], the IC50 against factor Xa came out at 27 nM; against thrombin it was 32100 nM; on prothrombinase complex, 422 nM; on TRYPSIN, 55.7 nM; against TPA, 36100 nM; at APC it was 7650 nM. Moreover, the IC50 is 3670 nM at PLASMIN and 592 nM with KALLIKREIN.
For the molecule `CC(=N)N1CCC(Oc2ccc3c(c2)n(Cc2ccc4ccc(C(=N)N)cc4c2)c(=O)n3CC(=O)OCC(C)C)CC1` [Example 12], the IC50 turned out to be 10.8 nM at factor Xa; 264000 nM on thrombin; 103 nM on prothrombinase complex; 81.6 nM against TRYPSIN; 54000 nM against TPA; 8120 nM against APC. Also, the IC50 on PLASMIN came out at 4220 nM; in the assay with KALLIKREIN, 1340 nM.
For `CC(=N)N1CCC(Oc2ccc3c(c2)n(Cc2ccc4ccc(C(=N)N)cc4c2)c(=O)n3CC(=O)O)CC1` [Example 14], the IC50 at factor Xa was 8.15 nM; at prothrombinase complex it was 481 nM; on TRYPSIN, 192 nM; against TPA, 88100 nM; on APC, 19300 nM; on PLASMIN, 6040 nM. For the same molecule, half-maximal inhibition in the assay on KALLIKREIN (IC50) was put at 2950 nM.
